Data on one molecule can be found in patent US20090018118A1, “HETEROCYCLIC COMPOUNDS” (priority 2005, published 2009).

SMILES strings stand for the structures. Where two headings read alike, the source gives them in different places.

In series [1] the test system is cholesterol biosynthesis in HepG2 cells. The series is described as follows: Metabolic labeling of HepG2 cells with [3H]acetate; radio-HPLC sterol profile (inhibition of cholesterol biosynthesis). It is filed as cell-based, human. To be noted: HepG2; for activity at 10 µM: Homo sapiens, 24 h, Table I, sterol level normalized to normal medium (1.00), mean of 4 experiments. In outline:
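HepG2 cells in DMEM with 5% calf serum were treated 24 h with compound at 10 μM (atorvastatin 10 μM as positive control). They were then pulsed 4 h with [3H]acetate at 40 μCi/ml. Extracted sterols were separated by RP-HPLC with radio-detection against standards, normalized to ergosterol and protein versus untreated medium, and averaged over 4 experiments.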

[2] abbreviates: Table II (arranged by sterol profile), 10 μM compound, normalized to normal medium (1.00).

Molecule `OC(CN1CCN(CCc2ccccc2)CC1)c1ccc2ccccc2c1` (stereo not drawn) [LK-9111B, 1-(Naphthalen-2-yl)-2-(4-phenethylpiperazin-1-yl)ethanol] registered a melting point of 126 to 129 °C. Further, in series [1] (10 μM), the “FF-MAS accumulation (in words)” value was “notably accumulate FF-MAS”. Moreover, the “lanosterol level (in words)” value in series [1] (10 μM, relative to normal medium) is reported as “indicates lanosterol accumulation”. Further, the activity at 10 µM in series [1] (10 μM compound, read-out: FF-MAS) was 901%. The activity at 10 µM in series [1] (10 μM compound, read-out: cholesterol) was 0%. The activity at 10 µM in series [1] (10 μM compound, read-out: desmosterol) came to 0%. For the same molecule, the activity at 10 µM in series [1] (10 μM compound, read-out: lanosterol) was found to be 197%. In addition, the activity at 10 µM in series [1] (10 μM compound, read-out: lathosterol) was 46%. The activity at 10 µM in series [1] (10 μM compound, read-out: zymosterol+7-dehydrocholesterol) stood at 171%. Besides, in series [1] (setting [2]), the FF-MAS was determined as 9.01, the cholesterol was found to be 0.00, the desmosterol worked out at 0.00 and the lanosterol worked out at 1.97. In addition, in series [1] (setting [2]), the lathosterol is listed as 0.46 and the “zymosterol+7-dehydrocholesterol” value stood at 1.71.
